Reference: publication PMC11277932, “Australian Marine and Terrestrial Streptomyces-Derived Surugamides, and Synthetic Analogs, and Their Ability to Inhibit Dirofilaria immitis (Heartworm) Motility” (Marine Drugs, 2024)
Values after ≈ are worked out from the molar mass of the structure shown. Square brackets hold non-standard residues; d marks the D form. Peptide text beside a SMILES is read from it. * marks the point of attachment. d(aIle) = CC[C@H](C)[C@@H](N)C(=O)O; hArg = N=C(N)NCCCC[C@H](N)C(=O)O; Lys(Me) = CNCCCC[C@H](N)C(=O)O; Lauroyl = CCCCCCCCCCCC(=O)*; Pyruvoyl = CC(=O)C(=O)*; Pentanoyl = CCCCC(=O)*; Propionyl = CCC(=O)*; Bz = O=C(c1ccccc1)*; For = O=C*

Columns and labels:
[1] = test system: Dirofilaria immitis microfilariae; assay: microbe, parasite or virus in culture; conditions: 72 h, read-out: D. immitis mf Motility EC50, ~72 h
[2] = test system: Haemonchus contortus L1–L3 larvae; assay: microbe, parasite or virus in culture; conditions: 96 h, read-out: H. contortus L1–L3 Larvae Development EC50
[3] = test system: human colorectal (SW620) carcinoma cells; assay: cells; conditions: SW-620, read-out: Human Colorectal Carcinoma Cells (SW620) IC50
[4] = test system: Haemonchus contortus L1–L3 larvae; conditions: pure compounds; four days
[5] = test system: human colorectal (SW620) carcinoma cells; conditions: MTT
[6] = test system: Dirofilaria immitis microfilariae; conditions: pure compounds; ~72 h
Erwinia amylovora = test system: Erwinia amylovora; design: method as in PMID 24317473; conditions: at 25 μM; cited from earlier work
Staphylococcus aureus = test system: Staphylococcus aureus; design: method as in PMID 24713874; conditions: cited from earlier work

Row | Compound | EC50 [1] [µg/mL] | EC50 [2] [µg/mL] | IC50 [3] [µg/mL] | H. contortus L1–L3 Larvae Development EC50 [4] [µg/mL] | Human Colorectal Carcinoma Cells (SW620) IC50 [5] [µg/mL] | D. immitis mf Motility EC50 [6] [µg/mL] | inhibition of Erwinia amylovora (Erwinia amylovora) [%] | Staphylococcus aureus MIC (Staphylococcus aureus) [µM]
1 | CCCC[C@H]1C(=O)O[C@H](C)[C@H](NC(=O)c2cccc(NC=O)c2O)C(=O)O[C@@H](C)[C@@H]1OC(=O)C(C)C [antimycin A4a (1), antimycin A4a] | 0.0013 to 0.0021 (≈ 0.00257 to 0.00415 µM) | 3.5 (≈ 6.91 µM) | 0.061 (≈ 0.12 µM) | – | – | – | – | –
2 | CC[C@H](C)[C@@H]1NC(=O)[C@H](CCCCNC(=O)C(C)=O)NC(=O)[C@@H]([C@@H](C)CC)NC(=O)[C@H]([C@@H](C)CC)NC(=O)[C@@H](C)NC(=O)[C@H]([C@@H](C)CC)NC(=O)[C@@H](CC(C)C)NC(=O)[C@@H](Cc2ccccc2)NC1=O [acyl-surugamide A4 (8), acyl-surugamide A4] (cyclo(I[d(aIle)]K(Pyruvoyl)I[dF][dL]I[dA])) | – | – | – | >25 | >30 | 16.0 | – | –
3 | CC[C@H](C)[C@@H]1NC(=O)[C@H](CCCNC(=N)N)NC(=O)[C@@H]([C@@H](C)CC)NC(=O)[C@H]([C@@H](C)CC)NC(=O)[C@@H](C)NC(=O)[C@H]([C@@H](C)CC)NC(=O)[C@@H](CC(C)C)NC(=O)[C@@H](Cc2ccccc2)NC1=O [surugamide S2 (10), surugamide S2] (cyclo(I[d(aIle)]RI[dF][dL]I[dA])) | – | – | – | >25 | – | > 25 | – | –
4 | CC[C@H](C)[C@@H]1NC(=O)[C@H](C)NC(=O)[C@@H]([C@@H](C)CC)NC(=O)[C@H]([C@@H](C)CC)NC(=O)[C@@H](C)NC(=O)[C@H]([C@@H](C)CC)NC(=O)[C@@H](CC(C)C)NC(=O)[C@@H](Cc2ccccc2)NC1=O [surugamide S3 (11), surugamide S3] (cyclo(I[d(aIle)]AI[dF][dL]I[dA])) | – | – | – | >25 | – | > 25 | – | –
5 | CC[C@H](C)[C@@H]1NC(=O)[C@H](CCCCNC)NC(=O)[C@@H]([C@@H](C)CC)NC(=O)[C@H]([C@@H](C)CC)NC(=O)[C@@H](C)NC(=O)[C@H]([C@@H](C)CC)NC(=O)[C@@H](CC(C)C)NC(=O)[C@@H](Cc2ccccc2)NC1=O [surugamide K (4), surugamide K] (cyclo(I[d(aIle)][Lys(Me)]I[dF][dL]I[dA])) | – | – | – | >25 | >30 | >25 | – | –
6 | CCCCCC[C@H]1C(=O)O[C@H](C)[C@H](NC(=O)c2cccc(NC=O)c2O)C(=O)O[C@@H](C)[C@@H]1OC(=O)C(C)C [antimycin A2a (2), antimycin A2a] | 0.0013 to 0.0021 (≈ 0.00243 to 0.00393 µM) | 1.8 (≈ 3.37 µM) | 0.08 (≈ 0.15 µM) | – | – | – | – | –
7 | CC[C@H](C)[C@@H]1NC(=O)[C@H](CCCCNC(=O)c2ccccc2)NC(=O)[C@@H]([C@@H](C)CC)NC(=O)[C@H]([C@@H](C)CC)NC(=O)[C@@H](C)NC(=O)[C@H]([C@@H](C)CC)NC(=O)[C@@H](CC(C)C)NC(=O)[C@@H](Cc2ccccc2)NC1=O [acyl-surugamide AS3 (15), acyl-surugamide AS3] (cyclo(I[d(aIle)]K(Bz)I[dF][dL]I[dA])) | – | – | – | >25 | >30 | 3.4 | – | –
8 | CC[C@@H](C)[C@H]1NC(=O)[C@H]([C@@H](C)CC)NC(=O)[C@@H](C)NC(=O)[C@H]([C@@H](C)CC)NC(=O)[C@@H](CC(C)C)NC(=O)[C@@H](Cc2ccccc2)NC(=O)[C@H]([C@@H](C)CC)NC(=O)[C@H](CCCCN)NC1=O [surugamide S1 (9), cyclo[-L-Ile^1-D-Ile^2-L-Lys^3-L-Ile^4-D-Phe^5-D-Leu^6-L-Ile^7-D-Ala^8-]] (cyclo(I[dI]KI[dF][dL]I[dA])) | – | – | – | >25 | – | >25 | – | –
9 | CCC(=O)NCCCC[C@@H]1NC(=O)[C@@H]([C@@H](C)CC)NC(=O)[C@H]([C@@H](C)CC)NC(=O)[C@@H](C)NC(=O)[C@H]([C@@H](C)CC)NC(=O)[C@@H](CC(C)C)NC(=O)[C@@H](Cc2ccccc2)NC(=O)[C@H]([C@@H](C)CC)NC1=O [acyl-surugamide A3 (7), acyl-surugamide A3] (cyclo(I[d(aIle)]K(Propionyl)I[dF][dL]I[dA])) | – | – | – | >25 | > 30 | 3.3 | – | –
10 | CCCCC(=O)NCCCC[C@@H]1NC(=O)[C@@H]([C@@H](C)CC)NC(=O)[C@H]([C@@H](C)CC)NC(=O)[C@@H](C)NC(=O)[C@H]([C@@H](C)CC)NC(=O)[C@@H](CC(C)C)NC(=O)[C@@H](Cc2ccccc2)NC(=O)[C@H]([C@@H](C)CC)NC1=O [acyl-surugamide AS1 (13), acyl-surugamide AS1] (cyclo(I[d(aIle)]K(Pentanoyl)I[dF][dL]I[dA])) | – | – | – | >25 | >30 | 21 | – | –
11 | CC[C@H](C)[C@@H]1NC(=O)[C@H](CCCCN)NC(=O)[C@@H]([C@@H](C)CC)NC(=O)[C@H]([C@@H](C)CC)NC(=O)[C@@H](C)NC(=O)[C@H]([C@@H](C)CC)NC(=O)[C@@H](CC(C)C)NC(=O)[C@@H](Cc2ccccc2)NC1=O [surugamide A (3), surugamide A] (cyclo(I[d(aIle)]KI[dF][dL]I[dA])) | – | – | – | >25 | >30 | >25 | 40 | 10
12 | CC[C@H](C)[C@@H]1NC(=O)[C@H](CCCCNC(C)=O)NC(=O)[C@@H]([C@@H](C)CC)NC(=O)[C@H]([C@@H](C)CC)NC(=O)[C@@H](C)NC(=O)[C@H]([C@@H](C)CC)NC(=O)[C@@H](CC(C)C)NC(=O)[C@@H](Cc2ccccc2)NC1=O [acyl-surugamide A2 (6), acyl-surugamide A2] (cyclo(I[d(aIle)]K(Ac)I[dF][dL]I[dA])) | – | – | – | >25 | >30 | >25 | – | –
13 | CC[C@H](C)[C@@H]1NC(=O)[C@H](CCCCNC=O)NC(=O)[C@@H]([C@@H](C)CC)NC(=O)[C@H]([C@@H](C)CC)NC(=O)[C@@H](C)NC(=O)[C@H]([C@@H](C)CC)NC(=O)[C@@H](CC(C)C)NC(=O)[C@@H](Cc2ccccc2)NC1=O [acyl-surugamide A1 (5), acyl-surugamide A1] (cyclo(I[d(aIle)]K(For)I[dF][dL]I[dA])) | – | – | – | >25 | >30 | >25 | – | –
14 | CCCCCCCCCCCC(=O)NCCCC[C@@H]1NC(=O)[C@@H]([C@@H](C)CC)NC(=O)[C@H]([C@@H](C)CC)NC(=O)[C@@H](C)NC(=O)[C@H]([C@@H](C)CC)NC(=O)[C@@H](CC(C)C)NC(=O)[C@@H](Cc2ccccc2)NC(=O)[C@H]([C@@H](C)CC)NC1=O [acyl-surugamide AS2 (14), acyl-surugamide AS2] (cyclo(I[d(aIle)]K(Lauroyl)I[dF][dL]I[dA])) | – | – | – | >25 | >30 | >25 | – | –
15 | CC[C@H](C)[C@@H]1NC(=O)[C@H](CCCCNC(=N)N)NC(=O)[C@@H]([C@@H](C)CC)NC(=O)[C@H]([C@@H](C)CC)NC(=O)[C@@H](C)NC(=O)[C@H]([C@@H](C)CC)NC(=O)[C@@H](CC(C)C)NC(=O)[C@@H](Cc2ccccc2)NC1=O [surugamide S4 (12), surugamide S4] (cyclo(I[d(aIle)][hArg]I[dF][dL]I[dA])) | – | – | – | >25 | – | >25 | – | –
